# Results as given in paper PMC6028563, “Probing Substituents in the 1- and 3-Position: Tetrahydropyrazino-Annelated Water-Soluble Xanthine Derivatives as Multi-Target Drugs With Potent Adenosine Receptor Antagonistic Activity” (Frontiers in Chemistry, 2018).
# Columns and labels:
# human A1 AR = biological target: T1, human A1 AR (Homo sapiens, UniProt P30542); test: Radioligand binding assay at human A1 AR vs. [^3H]CCPA; details: human (h); CHO cell membranes; n = 3
# T1 construct: expressed in transfected cells; host or cells: CHO cells
# T1 sequence (P30542 1-326): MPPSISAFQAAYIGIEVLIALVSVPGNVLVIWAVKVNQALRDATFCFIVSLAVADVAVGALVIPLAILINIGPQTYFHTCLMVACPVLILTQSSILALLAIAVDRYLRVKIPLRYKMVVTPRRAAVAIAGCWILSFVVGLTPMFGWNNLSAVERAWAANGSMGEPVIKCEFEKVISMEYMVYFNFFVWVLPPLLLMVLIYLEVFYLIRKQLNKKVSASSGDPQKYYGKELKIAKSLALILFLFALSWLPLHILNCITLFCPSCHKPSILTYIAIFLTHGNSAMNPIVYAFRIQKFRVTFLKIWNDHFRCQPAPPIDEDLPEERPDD
# Procedure: (§1) Membrane preparations and radioligand binding assays at rat A1 (rat brain cortex) and rat A2A ARs (rat brain striatum) were performed as previously described (Ozola et al., [2003]; Alnouri et al., [2015]). For assays at human A1, A2A, A2B, and A3 ARs, CHO cell membranes expressing one of the human AR subtypes were used as previously reported (Klotz et al., [1998]; Alnouri et al., [2015]; De Filippo et al., [2016]).
# (§2) The synthesized tetrahydropyrazino[2,1-f ]purinediones 13–20 were evaluated in radioligand binding assays for their affinity to A1 ARs of rat brain cortical membrane and to A2A ARs of rat brain striatal membrane preparations. Selected compounds were further investigated for their affinity to human A1 and A2A ARs recombinantly expressed in Chinese hamster ovary (CHO) cells. All compounds were additionally investigated for their affinity to human A2B and A3 ARs recombinantly expressed in CHO cells to determine their AR subtype selectivity. […] It is well known that all xanthine derivatives lacking a ribose moiety, including tricyclic compounds, can only block ARs, but never act as AR agonists; therefore, additional functional studies were not required. […] Potent MAO-B inhibitors were additionally investigated for inhibition of human MAO-A to assess their selectivity. Results are presented in Tables 1–6, and data of standard ligands are included for comparison.
# rat A1 AR = biological target: T2, rat A1 AR (Rattus norvegicus, UniProt P25099); test: Radioligand binding assay at rat A1 AR (rat brain cortex) vs. [^3H]CCPA; details: rat (r); rat brain cortex; n = 3
# T2 construct: A1 ARs of rat brain cortical membrane; from tissue; host or cells: rat brain cortex membranes
# T2 sequence (P25099 1-326): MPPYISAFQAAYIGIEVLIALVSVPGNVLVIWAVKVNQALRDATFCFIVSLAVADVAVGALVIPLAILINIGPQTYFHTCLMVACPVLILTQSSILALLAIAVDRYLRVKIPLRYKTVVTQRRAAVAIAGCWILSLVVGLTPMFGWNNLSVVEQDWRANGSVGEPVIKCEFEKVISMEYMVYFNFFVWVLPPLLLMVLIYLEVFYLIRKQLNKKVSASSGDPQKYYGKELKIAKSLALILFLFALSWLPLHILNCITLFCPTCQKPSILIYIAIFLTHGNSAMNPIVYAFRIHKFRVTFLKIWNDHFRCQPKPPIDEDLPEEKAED
# Summary of the method: (§3)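 Using CHO membranes with one recombinant human AR subtype each (A1, A2A, A2B, A3), plus rat cortical (A1) and striatal (A2A) membranes, compounds are tested in radioligand binding to give receptor affinity and subtype selectivity.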
# human A2A AR = biological target: T3, human A2A AR (Homo sapiens, UniProt P29274); test: Radioligand binding assay at human A2A AR vs. [^3H]MSX-2; details: CHO cell membranes, n = 3, read-out: Ki ± SEM, A2A vs. [^3H]MSX-2
# T3 construct: expressed in transfected cells; host or cells: CHO cells
# Procedure: as §1, §2
# rat A2A AR = biological target: T4, rat A2A AR (Rattus norvegicus, UniProt P30543); test: Radioligand binding assay at rat A2A AR (rat brain striatum) vs. [^3H]MSX-2; details: rat (r); for Ki: rat brain striatum, n = 3, read-out: Ki ± SEM, A2A vs. [^3H]MSX-2
# T4 construct: A2A ARs of rat brain striatal membrane preparations; from tissue; host or cells: rat brain striatum membranes
# Summary of the method: as §3
# human A2B AR = biological target: T5, human A2B AR (Homo sapiens, UniProt P29275); test: Radioligand binding assay at human A2B AR vs. [^3H]PSB-603; details: for Ki: CHO cell membranes, n = 2 (n = 3 where marked a), read-out: Ki ± SEM, A2B vs. [^3H]PSB-603; for inhibition at 1 µM: at 1,000 nM, read-out: % inhibition of radioligand binding at indicated concentration, A2B vs. [^3H]PSB-603
# T5 construct: expressed in transfected cells; host or cells: CHO cells
# T5 sequence (P29275 1-332): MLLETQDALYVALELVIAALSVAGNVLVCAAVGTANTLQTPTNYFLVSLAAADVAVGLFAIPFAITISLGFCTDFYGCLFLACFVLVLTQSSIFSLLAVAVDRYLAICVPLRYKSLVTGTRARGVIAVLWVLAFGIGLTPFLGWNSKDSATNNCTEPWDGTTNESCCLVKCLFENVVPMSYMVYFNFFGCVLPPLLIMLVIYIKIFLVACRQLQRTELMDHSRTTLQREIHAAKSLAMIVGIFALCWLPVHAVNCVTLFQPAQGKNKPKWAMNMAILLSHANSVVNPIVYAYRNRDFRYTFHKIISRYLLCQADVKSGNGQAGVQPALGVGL
# Summary of the method: as §3
# human A3 AR = biological target: T6, human A3 AR (Homo sapiens, UniProt P0DMS8); test: Radioligand binding assay at human A3 AR vs. [^3H]PSB-11; details: for Ki: CHO cell membranes, n = 2 (n = 3 where marked a), read-out: Ki ± SEM, A3 vs. [^3H]PSB-11; for inhibition at 10 µM: at 10,000 nM, read-out: % inhibition of radioligand binding at indicated concentration, A3 vs. [^3H]PSB-11
# T6 construct: expressed in transfected cells; host or cells: CHO cells
# T6 sequence (P0DMS8 1-318): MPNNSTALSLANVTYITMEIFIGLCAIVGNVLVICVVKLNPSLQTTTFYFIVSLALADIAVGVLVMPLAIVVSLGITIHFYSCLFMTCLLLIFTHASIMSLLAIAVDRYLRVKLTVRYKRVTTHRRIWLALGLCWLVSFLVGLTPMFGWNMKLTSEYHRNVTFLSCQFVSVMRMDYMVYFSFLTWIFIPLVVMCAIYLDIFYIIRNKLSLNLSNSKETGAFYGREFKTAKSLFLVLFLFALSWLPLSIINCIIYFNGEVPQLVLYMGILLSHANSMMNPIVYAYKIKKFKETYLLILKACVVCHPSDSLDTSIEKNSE
# Summary of the method: as §3
# recombinant human MAO-B = biological target: T7, recombinant human MAO-B (Homo sapiens, UniProt P27338); test: Monoamine oxidase assay (Amplex Red), MAO-B; format: biochemical; details: for inhibition at 10 µM: at 10,000 nM (10 μM), read-out: % inhibition at indicated concentration, Human MAO-B; for IC50: n = 3, read-out: IC50 ± SEM, Human MAO-B
# T7 construct: purchased Sigma-Aldrich M7441; host or cells: baculovirus-infected insect cells
# T7 sequence (P27338 1-520): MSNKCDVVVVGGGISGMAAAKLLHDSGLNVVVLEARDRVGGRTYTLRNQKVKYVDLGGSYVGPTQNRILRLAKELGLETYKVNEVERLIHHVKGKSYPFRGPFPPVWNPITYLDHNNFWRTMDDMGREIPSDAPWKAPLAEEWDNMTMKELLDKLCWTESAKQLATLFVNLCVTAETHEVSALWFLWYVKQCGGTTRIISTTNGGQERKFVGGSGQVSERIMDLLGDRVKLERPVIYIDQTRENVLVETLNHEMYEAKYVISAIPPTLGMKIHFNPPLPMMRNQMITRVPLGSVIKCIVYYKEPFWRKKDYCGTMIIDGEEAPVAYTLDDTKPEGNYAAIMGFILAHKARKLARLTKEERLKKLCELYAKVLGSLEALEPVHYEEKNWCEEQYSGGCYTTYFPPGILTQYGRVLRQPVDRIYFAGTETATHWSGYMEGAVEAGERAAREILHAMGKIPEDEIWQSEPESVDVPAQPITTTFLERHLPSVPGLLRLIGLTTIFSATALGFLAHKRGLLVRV
# Summary of the method: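 Recombinant human MAO-A and MAO-B, expressed in baculovirus-infected insect cells, were assayed by Amplex Red fluorometric detection. Rat MAO-B inhibition used mitochondria-enriched fractions from male Sprague Dawley rat liver.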
# T3 sequence (P29274 whole entry): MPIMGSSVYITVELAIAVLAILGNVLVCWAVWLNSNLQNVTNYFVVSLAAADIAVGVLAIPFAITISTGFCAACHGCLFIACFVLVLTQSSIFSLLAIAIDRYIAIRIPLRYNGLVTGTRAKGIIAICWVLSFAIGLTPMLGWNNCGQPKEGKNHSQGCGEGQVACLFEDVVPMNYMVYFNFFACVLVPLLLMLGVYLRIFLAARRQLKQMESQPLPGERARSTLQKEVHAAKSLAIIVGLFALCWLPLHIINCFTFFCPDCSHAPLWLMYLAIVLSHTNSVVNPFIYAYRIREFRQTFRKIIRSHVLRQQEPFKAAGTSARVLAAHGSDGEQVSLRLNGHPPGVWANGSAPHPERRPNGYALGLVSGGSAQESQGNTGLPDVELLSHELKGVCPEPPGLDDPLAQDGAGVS
# T4 sequence (P30543 whole entry): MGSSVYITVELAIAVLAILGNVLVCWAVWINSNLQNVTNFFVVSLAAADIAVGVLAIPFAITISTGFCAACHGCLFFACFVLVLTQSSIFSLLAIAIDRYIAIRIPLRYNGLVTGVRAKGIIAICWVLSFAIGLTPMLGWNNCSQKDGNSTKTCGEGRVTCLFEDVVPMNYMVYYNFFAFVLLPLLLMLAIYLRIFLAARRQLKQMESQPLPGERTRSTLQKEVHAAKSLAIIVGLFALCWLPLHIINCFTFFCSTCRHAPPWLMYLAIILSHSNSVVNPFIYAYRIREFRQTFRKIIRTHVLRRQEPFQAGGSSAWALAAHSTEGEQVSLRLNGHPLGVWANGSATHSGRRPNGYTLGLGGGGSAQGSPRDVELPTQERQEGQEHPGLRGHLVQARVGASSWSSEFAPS
SMILES,Ki (human A1 AR) [nM],Ki (rat A1 AR) [nM],Ki (human A2A AR) [nM],Ki (rat A2A AR) [nM],Ki (human A2B AR) [nM],inhibition at 1 µM (human A2B AR) [%],Ki (human A3 AR) [nM],inhibition at 10 µM (recombinant human MAO-B) [%],IC50 (recombinant human MAO-B) [nM],inhibition at 10 µM (human A3 AR) [%],"% inhibition of radioligand binding at indicated concentration, A2A vs. [^3H]MSX-2 (rat A2A AR; at 1,000 nM) [%]"
"C#CCn1c(=O)c2c(nc3n2CCN(c2ccc(F)cc2)C3)n(CC)c1=O [Compound 20b, 1-ethyl-8-(4-fluorophenyl)-3-propargyl-6,7,8,9-tetrahydropyrazino[2,1-f]purine-2,4(1H,3H)-dione]",1530,410 ± 60,378 ± 49,128 ± 20,> 1000,15,2390,35,> 10000,,
"C#CCn1c(=O)c2c(nc3n2CCN(CCc2cccc(OC)c2)C3)n(CC)c1=O [Compound 20j, 1-ethyl-8-(3-methoxyphenethyl)-3-propargyl-6,7,8,9-tetrahydropyrazino[2,1-f]purine-2,4(1H,3H)-dione]",1020,669 ± 35,25500,798 ± 134,> 1000,11,> 10000,30,> 10000,13,
"CCn1c(=O)c2c(nc3n2CCN(Cc2cccc(C(F)(F)F)c2F)C3)n(CC)c1=O [Compound 15h, 1,3-diethyl-8-(2-fluoro-3-(trifluoromethyl)benzyl)-6,7,8,9-tetrahydropyrazino[2,1-f]purine-2,4(1H,3H)-dione]",189 ± 29,172 ± 28,663 ± 54,895 ± 210,> 1000,30,> 10000,32,> 10000,29,
"CCn1c(=O)c2c(nc3n2CCN(Cc2cc(F)cc(C(F)(F)F)c2)C3)n(C)c1=O [Compound 14p, 3-ethyl-8-(3-fluoro-5-(trifluoromethyl)benzyl)-1-methyl-6,7,8,9-tetrahydropyrazino[2,1-f]purine-2,4(1H,3H)-dione]",330 ± 67,111 ± 25,503 ± 121,801 ± 99,> 1000,5,> 10000,23,> 10000,39,
"C#CCn1c(=O)c2c(nc3n2CCN(CCc2ccccc2OC)C3)n(CC)c1=O [Compound 20i, 1-ethyl-8-(2-methoxyphenethyl)-3-propargyl-6,7,8,9-tetrahydropyrazino[2,1-f]purine-2,4(1H,3H)-dione]",1260,701 ± 204,3230,883 ± 265,> 1000,24,5830,26,> 10000,,
"CCn1c(=O)c2c(nc3n2CCN(Cc2cccc(Cl)c2)C3)n(CC)c1=O [Compound 15c, 8-(3-chlorobenzyl)-1,3-diethyl-6,7,8,9-tetrahydropyrazino[2,1-f]purine-2,4(1H,3H)-dione]",128 ± 17,85.9 ± 28.6,2380,> 1000,> 1000,12,5410,47,≥ 10000,,22
"C#CCn1c(=O)c2c(nc3n2CCN(Cc2ccccc2)C3)n(CC)c1=O [Compound 20e, 8-benzyl-1-ethyl-3-propargyl-6,7,8,9-tetrahydropyrazino[2,1-f]purine-2,4(1H,3H)-dione]",180 ± 28,118 ± 28,282 ± 38,245 ± 39,> 1000,2,> 10000,20,> 10000,35,
"CCn1c(=O)c2c(nc3n2CCN(Cc2cccc(Br)c2)C3)n(CC)c1=O [Compound 15d, 8-(3-bromobenzyl)-1,3-diethyl-6,7,8,9-tetrahydropyrazino[2,1-f]purine-2,4(1H,3H)-dione]",13.6 ± 2.1,21.5 ± 8.3,1050,1040,496 ± 135,,7220,49,≥ 10000,,
